From patent US20020132853A1, “Capsaicin receptor ligands” (priority 2000, published 2002) come the findings set out here.

Where only a bound is given, the exact number is not on record here.

T1 sequence (Q8NER1 whole entry): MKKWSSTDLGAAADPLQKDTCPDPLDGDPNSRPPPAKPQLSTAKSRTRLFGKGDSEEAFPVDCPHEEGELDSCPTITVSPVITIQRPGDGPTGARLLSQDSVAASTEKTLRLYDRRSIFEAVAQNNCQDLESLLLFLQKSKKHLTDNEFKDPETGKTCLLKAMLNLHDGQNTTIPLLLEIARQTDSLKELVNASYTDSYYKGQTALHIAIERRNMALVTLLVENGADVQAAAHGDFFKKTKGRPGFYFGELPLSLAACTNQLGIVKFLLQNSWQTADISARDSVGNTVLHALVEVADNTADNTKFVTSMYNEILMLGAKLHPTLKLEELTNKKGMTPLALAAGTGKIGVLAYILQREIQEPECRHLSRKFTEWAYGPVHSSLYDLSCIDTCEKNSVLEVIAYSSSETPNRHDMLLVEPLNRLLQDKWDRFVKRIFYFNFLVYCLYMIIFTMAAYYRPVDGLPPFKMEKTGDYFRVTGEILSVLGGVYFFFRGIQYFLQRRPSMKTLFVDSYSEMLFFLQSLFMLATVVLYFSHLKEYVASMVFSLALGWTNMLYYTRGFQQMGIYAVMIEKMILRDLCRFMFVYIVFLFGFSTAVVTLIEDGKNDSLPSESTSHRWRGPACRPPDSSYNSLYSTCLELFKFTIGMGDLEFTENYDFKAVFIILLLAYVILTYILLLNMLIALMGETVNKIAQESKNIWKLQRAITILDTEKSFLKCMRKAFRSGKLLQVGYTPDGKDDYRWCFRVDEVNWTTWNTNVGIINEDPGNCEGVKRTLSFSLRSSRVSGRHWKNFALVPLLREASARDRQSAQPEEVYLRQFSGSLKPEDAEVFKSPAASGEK

One experiment addresses T1, human capsaicin receptor (Homo sapiens, UniProt Q8NER1).
T1 construct: expression consrtuct encoding the full length human capsaicin receptor; expressed in transfected cells
Description: Antagonist assay for Capsaicin receptor mediated calcium mobilization. It is filed as cell-based. To be noted: Table III, read-out: EC50 (the source's name). The procedure:
Calcium Mobilization Assay
Cells transfected with expression plasmids (as described in Example 10) and thereby expressing the human capsaicin receptor are seeded and grown to 70-90% confluency in FALCON black-walled, clear-bottomed 96-well plates (#3904, BECTON-DICKINSON, Franklin Lakes, N.J.) . The culture media are emptied from the 96 well plates and FLUO-3 AM calcium sensitive dye (Molecular Probes, Eugene, OR) is added to each well (dye solution: 1 mg FLUO-3 AM, 440 uL DMSO and 440 ul 20% pluronic acid in DMSO, diluted 1:4, 50 ul diluted solution per well). Plates are covered with aluminum foil and incubated at 37° C for 1-2 hours in an environment containing 5% CO2. After the incubation the dye is emptied from the plates, and the cells are washed once with Krebs-Ringer HEPES (KRH) buffer (25 mM HEPES, 5 mM KCl, 0.96 mM NaH2PO4, 1 MM MgSO4, 2 mM CaCl2, 5 mM glucose, 1 mM probenecid, pH 7.4), and resuspended in KRH buffer.
Agonist (e.g., olvanil, capsaicin, or RTX)-induced calcium mobilization is monitored using either FLUOROSKAN ASCENT (Labsystems, Franklin, Mass.) or FLIPR (fluorometric imaging plate reader system, Molecular Devices, Sunnyvale, Calif.) instruments. Similarly, varying concentrations of the antagonists ruthenium red or capsazepine are added to cells concurrently with agonist (e.g., 25-50 nM capsaicin). For agonist-induced calcium responses, data obtained between 30 and 60 seconds after agonist application are used to generate the EC50 values. […] software (Synergy Software, Reading, Pa.) was utilized to fit the data to the equation: […]
to determine the EC50 for the response. In this equation, y is the maximum fluorescence signal, x is the concentration of the agonist or antagonist, a is the Emax, b corresponds to the EC50 or IC50 value, and finally, c is the Hill coefficient.
Assay for Determination of Capsaicin Receptor Antagonist Effects
In order to measure the ability of a test compound to antagonize (inhibit) the response of cells expressing capsaicin receptors to capsaicin or other vanilloid agonist, the EC50 of capsaicin is first determined.
An additional 20 ul of KRH buffer and 1 ul DMSO is added to each well of cells, prepared as described above. 100 ul capsaicin in KRH buffer is automatically transferred by the FLIPR instrument to each well.
Test compounds are dissolved in DMSO, diluted in 20 ul KRH buffer so that the final concentration of test compounds in the assay well is between 1 uM and 5 uM, and added to cells prepared as described above. The 96 well plates containing prepared cells and test compounds are incubated in the dark, at room temperature for 0.5-6 hours. It is important that the incubation not continue beyond 6 hours. Just prior to determining the fluorescence response, 100 ul capsaicin in KRH buffer at twice the EC50 concentration determined from the concentration response curve is automatically added by the FLIPR instrument to each well of the 96 well plate for a final sample volume of 200 ul and a final capsaicin concentration equal to the EC50. The final concentration of test compounds in the assay wells is between 1 uM and 5 uM. […] Antagonists of the capsaicin receptor decrease this response by about 20%, preferably by about 50%, and most preferably by at least 80% as compared to matched control. The concentration of antagonist required to provide a 50% decrease is the EC50 for the antagonist (also referred to as the IC50).
Turning to `Cc1cccc(N2CCN(C(=O)Nc3ccc(C(C)(C)C)cc3)[C@H](C)C2)n1` [Compound 86, (2R)-N-(4-tert-butylphenyl)-2-methyl-4-(6-methylpyridin-2-yl)piperazine-1-carboxamide], the IC50 was < 1000 nM.

The same experiment, now with this note: Table IV, read-out: EC50 (the source's name).
On to `O=C(Nc1ccc(C(F)(F)F)cn1)N1CCN(c2ncccc2Cl)CC1` [Compound 93, 4-(3-chloropyridin-2-yl)-N[5-(trifluoromethyl)pyridin-2-yl]piperazine-1-carboxamide], for which the IC50 is < 1000 nM. The same measure, in the same setting: for `C[C@@H]1CN(c2ncccc2Cl)CCN1C(=O)Nc1ccc(C(F)(F)F)cn1` [Compound 94, (2R)-4-(3-chloropyridin-2-yl)-2-methyl-N-[5-(trifluoromethyl)pyridin-2-yl]piperazine-1-carboxamide] the value was < 1000 nM; for `C[C@@H]1CN(c2nccnc2Cl)CCN1C(=O)Nc1ccc(C(C)(C)C)cc1` [Compound 95, (2R)-N-(4-tert-butylpghenyl)-4-(3-chloropyrazin-2-yl)-2-methylpiperazine-1-carboxamide], < 1000 nM. Still for that read-out and setting: for `CC(C)c1ccc(NC(=O)N2CCN(c3nccnc3Cl)C[C@H]2C)cc1` [Compound 96, (2R)-4-(3-chloropyrazin-2-yl)-N-(4-isopropylphenyl)-2-methylpiperazine-1-carboxamide] the value was < 1000 nM. In the case of `C[C@@H]1CN(c2ncccc2Cl)CCN1C(=O)Nc1ccc(C(F)(F)F)nc1` [Compound 98, (2R)-4-(3-chloropyridin-2-yl)-2-methyl-N-[6-(trifluoromethyl)pyridin-3-yl]piperazine-1-carboxamide], the IC50 was < 1000 nM. On the same count and under the same terms, the value for `C[C@@H]1CN(c2ncccc2Cl)CCN1C(=O)NC1CCC(C(C)(C)C)CC1` (stereo partly drawn) [Compound 99, (2R)-N-(4-tert-butylcyclohexyl)-4-(3-chloropyridin-2-yl)-2-methylpiperazine-1-carboxamide] was < 1000 nM; that for `CC(C)C1CCC(NC(=O)N2CCN(c3ncccc3Cl)C[C@H]2C)CC1` (stereo partly drawn) [Compound 100, (2R)-4-(3-chloropyridin-2-yl)-N-(4-isopropylcyclohexyl)-2-methylpiperazine-1-carboxamide] was < 1000 nM; that for `CC(C)C1CCC(NC(=O)N2CCN(c3ncccc3C(F)(F)F)C[C@H]2C)CC1` (stereo partly drawn) [Compound 101, (2R)-N-(4-isopropylcyclohexyl)-2-methyl-4-[3-(trifluoromethyl)pyridin-2-yl]piperazine-1-carboxamide] was < 1000 nM.

Staying with this experiment, now noted: Table V, read-out: EC50 (the source's name).
With `O=C(Nc1ccc(Cl)cc1)N1CCN(c2cc(C(F)(F)F)ccn2)CC1` [Compound 107, N-(4-chlorophenyl)-4-[4-(trifluoromethyl)pyridin-2-yl]piperazine-1-carboxamide], the IC50 was < 1000 nM. Same read-out and setting: for `O=C(Nc1ccc(OC(F)(F)F)cc1)N1CCN(c2cc(C(F)(F)F)ccn2)CC1` [Compound 108, N-[4-*trifluoromethoxy)phenyl]-4-[4-(trifluoromethyl)pyririn-2-yl]piperazine-1-carboxamide] the value was < 1000 nM; for `O=C(Nc1cccc(Cl)c1)N1CCN(c2cc(C(F)(F)F)ccn2)CC1` [Compound 109, N-(3-chlorophenyl)-4-[4-(trifluoromethyl)pyridin-2-yl]piperazine-1-carboxamide], < 1000 nM.

With `O=C(Nc1cccc(C(F)(F)F)c1)N1CCN(c2ncccc2C(F)(F)F)CC1` [Compound 110, N-[3-(trifluoromethyl)phenyl]-4-[3-(trifluoromethyl)pyridin-2-yl]piperazine-1-carboxamide], the IC50 was < 1000 nM.

In the case of `COc1cccc(NC(=O)N2CCN(c3ncccc3C(F)(F)F)CC2)c1` [Compound 113, N-(3-methoxyphenyl)-4-[3-(trifluoromethyl)pyridin-2-yl]piperazine-1-carboxamide], the IC50 was < 1000 nM.

On to `O=C(Nc1cccc([N+](=O)[O-])c1)N1CCN(c2ncccc2C(F)(F)F)CC1` [Compound 116, N-(3-nitrophenyl)-4-[3-(trifluoromethyl)pyridin-2-yl]piperazine-1-carboxamide], for which the IC50 is < 1000 nM. Same read-out and setting: the value for `O=C(Nc1ccc(OC(F)(F)F)cc1)N1CCN(c2ncccc2C(F)(F)F)CC1` [Compound 117, N-[4-(trifluoromethoxy)phenyl]-4-[3-(trifluoromethyl)pyridin-2-yl]piperazine-1-carboxamide] was < 1000 nM; that for `O=C(Nc1ccc(Cl)c([N+](=O)[O-])c1)N1CCN(c2ncccc2C(F)(F)F)CC1` [Compound 118, N-(4-chloro-3-nitrophenyl)-4-[3-(trifluoromethyl)pyridin-2-yl]piperazine-1-carboxamide] was < 1000 nM. The same measure, in the same setting: the value for `O=C(Nc1cc(Cl)cc(Cl)c1)N1CCN(c2ncccc2C(F)(F)F)CC1` [Compound 119, N-(3,5-dichlorophenyl)-4-[3-(trifluoromethyl)pyridin-2-yl]piperazine-1-carboxamide] was < 1000 nM. As for `C[C@@H]1CN(c2ncccc2Cl)CCN1C(=O)Nc1ccc(C(C#N)c2ccccc2)cc1` (stereo partly drawn) [Compound 120, (2R)-4-(3-chloropyridin-2-yl)-N-[4-[cyano(phenyl)methyl]phenyl]-2-methylpiperazine-1-carboxamide], the IC50 was < 1000 nM. The same measure, in the same setting: the value for `Cc1cc(NC(=O)N2CCN(c3ncccc3Cl)C[C@H]2C)ccc1C(F)(F)F` [Compound 121, (2R)-4-(3-chloropyridin-2-yl)-2-methyl-N-[3-methyl-4-(trifluoromethyl)phenyl]piperazine-1-carboxamide] was < 1000 nM. The same measure, in the same setting: the value for `Cc1cc(NC(=O)N2CCN(c3ncccc3F)C[C@H]2C)ccc1C(F)(F)F` [Compound 122, (2R)-4-(3-fluoropyridin-2-yl)-2-methyl-N-[3-methyl-4-(trifluoromethyl)phenyl]piperazine-1-carboxamide] was < 1000 nM; that for `C[C@@H]1CN(c2ncccc2N(S(C)(=O)=O)S(C)(=O)=O)CCN1C(=O)Nc1ccc(C(C)(C)C)cc1` [Compound 123, (2R)-4-{3-[bis(methylsulfonyl)amino]pyridin-2-yl}-N-(4-tert-butylphenyl)-2-methylpiperazine-1-carboxamide] was < 1000 nM. Still for that read-out and setting: for `Cc1cc(NC(=O)N2CCN(c3ncccc3C(F)(F)F)C[C@H]2C)ccc1C(F)(F)F` [Compound 124, (2R)-2-methyl-N-[3-methyl-4-(trifluoromethyl)phenyl]-4-[3-(trifluoromethyl)pyridin-2-yl]piperazine-1-carboxamide] the value was < 1000 nM; for `C=C(c1ccc(NC(=O)N2CCN(c3ncccc3Cl)C[C@H]2C)cc1)C(F)(F)F` [Compound 125, (2R)-4-(3-chloropyridin-2-yl)-2-methyl-N-{4-[1-(trifluoromethyl)vinyl]phenyl]piperazine-1-carboxamide], < 1000 nM; for `C=C(c1ccc(NC(=O)N2CCN(c3ncccc3C(F)(F)F)C[C@H]2C)cc1)C(F)(F)F` [Compound 126, (2R)-2-methyl-4-[3-(trifluoromethyl)pyridin-2-yl]-N-{4-[1-(trifluoromethyl)vinyl]phenyl}piperazine-1-carboxamide], < 1000 nM. For `C=C(c1ccc(NC(=O)N2CCN(c3ncccc3F)C[C@H]2C)cc1)C(F)(F)F` [Compound 127, (2R)-4-(3-fluoropyridin-2-yl)-2-methyl-N-{4-[1-(trifluoromethyl)vinyl]phenyl}piperazine-1-carboxamide], the IC50 was < 1000 nM. On the same count and under the same terms, the value for `CCC(C)c1ccc(NC(=O)N2CCN(c3ncccc3F)C[C@H]2C)cc1` (stereo partly drawn) [Compound 128, (2R)-N-(4-sec-butylphenyl)-4-(3-fluoropyridin-2-yl)-2-methylpiperazine-1-carboxamide] was < 1000 nM. With `CC(c1ccc(NC(=O)N2CCN(c3ncccc3C(F)(F)F)C[C@H]2C)cc1)C(F)(F)F` (stereo partly drawn) [Compound 129, (2R)-2-methyl-N-[4-(2,2,2-trifluoro-1-methylethyl)phenyl]-4-[3-(trifluoromethyl)pyridin-2-yl]piperazine-1-carboxamide], the IC50 was < 1000 nM.
